Patent US20260234107A1, “TRYPTAMINES AND METHODS OF TREATING MOOD DISORDERS” (priority 2022, published 2026)
pEC50: −log10 of the molar value.

Experiments:
5-HT2B = target: T1, 5-HT2B (Homo sapiens, UniProt P41595); assay: FLIPR Ca2+ flux agonist assay at 5-HT2B; assay type: cell-based; details: for 5-HT2B % Act @ Max Dose: Ca2+ flux, HEK293, max dose
T1 construct: host or cells: HEK293

[1] = Stability in mouse brain homogenate; assay type: in vitro ADME, male CD-1 mice; details: mouse brain homogenate, 1 μM, 37° C.; for half-life at 1 µM: male, CD-1
5-HT2C receptor = target: T2, 5-HT2C receptor (Homo sapiens, UniProt P28335); assay: cell-based; assay type: cell-based; details: Ca2+ flux
T2 sequence (P28335 33-458): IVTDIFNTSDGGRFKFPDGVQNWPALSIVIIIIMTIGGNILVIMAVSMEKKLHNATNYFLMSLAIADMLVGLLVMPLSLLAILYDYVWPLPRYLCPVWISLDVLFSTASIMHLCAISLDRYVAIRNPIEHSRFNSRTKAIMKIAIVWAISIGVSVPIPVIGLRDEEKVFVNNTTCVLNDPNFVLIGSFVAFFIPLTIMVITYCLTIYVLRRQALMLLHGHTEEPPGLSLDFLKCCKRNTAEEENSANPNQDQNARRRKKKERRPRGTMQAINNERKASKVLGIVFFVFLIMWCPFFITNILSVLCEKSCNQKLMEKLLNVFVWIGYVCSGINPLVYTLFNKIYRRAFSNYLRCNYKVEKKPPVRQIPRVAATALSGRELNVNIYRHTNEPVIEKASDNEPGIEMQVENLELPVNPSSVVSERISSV

[2] = Plasma pharmacokinetics in mice after subcutaneous administration; assay type: in vivo, male C57BL/6 mice; details: plasma, male C57BL/6 mice, SC 10 mg/kg
Excerpt: Animals. […] Four mice were housed in each cage. […] All animals were provided laboratory rodent diet. […] Animals were randomly assigned to treatment groups.

T1 sequence (P41595 whole entry, species assumed): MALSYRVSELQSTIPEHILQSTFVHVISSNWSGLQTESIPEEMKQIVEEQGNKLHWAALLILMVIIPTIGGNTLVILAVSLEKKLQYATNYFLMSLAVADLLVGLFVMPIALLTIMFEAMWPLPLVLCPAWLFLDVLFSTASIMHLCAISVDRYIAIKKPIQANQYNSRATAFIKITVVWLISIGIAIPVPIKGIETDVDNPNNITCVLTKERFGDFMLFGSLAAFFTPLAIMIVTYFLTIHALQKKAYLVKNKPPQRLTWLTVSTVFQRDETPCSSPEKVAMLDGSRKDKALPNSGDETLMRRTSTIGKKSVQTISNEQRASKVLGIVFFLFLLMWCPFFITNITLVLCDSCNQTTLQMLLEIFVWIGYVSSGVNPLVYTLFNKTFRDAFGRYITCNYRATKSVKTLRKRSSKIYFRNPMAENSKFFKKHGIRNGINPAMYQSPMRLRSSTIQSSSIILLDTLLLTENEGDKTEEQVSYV

Structure (SMILES) | pEC50 (5-HT2B) | 5-HT2B % Act @ Max Dose (5-HT2B) [%] | t1/2 [1] [min] | % Compound Remaining (after 120 min) [1] [%] | pEC50 (5-HT2C receptor) | 5-HT2C % Act @ Max Dose (5-HT2C receptor) [%] | AUC(0-t) ([2]; mouse) [ng·h/mL] | Cmax ([2]; mouse) [ng/mL] | Tmax [2] [min] | t1/2 [2] [min] | half-life at 1 µM [1] [min]
CN(C)CCc1c[nH]c2ccc(F)cc12 [Compound 5-F-DMT, reference compound] | 8.01 | 17.6 | 3.1 | 0.0 | 8.31 | 93.9 | 247 | 363 | 15 | 16.2 | –
CCNCCc1c[nH]c2ccc(F)c(O)c12 [Compound 28, 3-(2-(ethylamino)ethyl)-5-fluoro-1H-indol-4-ol] | 7.41 | 19.83 | – | 1.9 | 7.16 | 99.03 | – | – | – | – | 22.1
CC(C)NCCc1c[nH]c2ccc(F)c(O)c12 [Compound 35, 5-fluoro-3-(2-(isopropylamino)ethyl)-1H-indol-4-ol] | 7.02 | 27.19 | – | 40 | 6.49 | 74.81 | – | – | – | – | 90.5
